Test results as given in article PMC8521408 (Journal of Antimicrobial Chemotherapy, 2021).
Like-named read-outs stand apart in the source and are kept apart here.

Legend:
[1] = for Covariate effect, CRGT on CL: exponent of (CRGT/83) on CL
[2] = Other clinical endpoints during ICU stay
[3] = New-onset AKI during vancomycin treatment
[4] = for Cumulative AUC: mean ± SD, SD
[5] = final model estimate, scaled to 70 kg TBW, critically ill ICU patients
[6] = median of bootstrap of final model (1000 samples)

CN[C@H](CC(C)C)C(=O)N[C@H]1C(=O)N[C@@H](CC(N)=O)C(=O)N[C@H]2C(=O)N[C@H]3C(=O)N[C@H](C(=O)N[C@H](C(=O)O)c4cc(O)cc(O)c4-c4cc3ccc4O)[C@H](O)c3ccc(c(Cl)c3)Oc3cc2cc(c3O[C@@H]2O[C@H](CO)[C@@H](O)[C@H](O)[C@H]2O[C@H]2C[C@](C)(N)[C@H](O)[C@H](C)O2)Oc2ccc(cc2Cl)[C@H]1O [vancomycin]
Covariate effect, CRGT on CL ([1]; bootstrap median): 0.63 | Covariate effect, CRGT on CL ([1]; final model estimate): 0.65 | V1, vancomycin central volume of distribution [1, 5]: 13.4 L | V2, vancomycin peripheral volume of distribution [1, 5]: 36.9 L | CL, vancomycin clearance [1, 6]: 1.83 L/h | V1, vancomycin central volume of distribution [1, 6]: 13.1 L | V2, vancomycin peripheral volume of distribution [1, 6]: 35.7 L | percentage of patients still on CVVH or other RRT at ICU discharge ([2]; CD group): 21.2% | percentage of patients with AKI at ICU discharge ([2]; CD group): 30.3% | percentage of patients with AKI using the maximum RIFLE score during the complete ICU stay ([2]; CD group): 59.4% | mean AKI duration ([2]; CD group, fixed first dose 1000 mg): 75.2 h | percentage of patients still on CVVH or other RRT at ICU discharge ([2]; LD group): 31.7% | percentage of patients with AKI at ICU discharge ([2]; LD group): 34.1% | percentage of patients with AKI using the maximum RIFLE score during the complete ICU stay ([2]; LD group): 57.5% | mean AKI duration ([2]; LD group, 25 mg/kg loading dose): 37.2 h | incidence of new-onset AKI ([3]; AUC0–24 < 400 mg·h/L, 4/27, all three groups): 14.8% | incidence of new-onset AKI ([3]; AUC0–24 below 600 mg·h/L, 17/69): 24.6% | incidence of new-onset AKI ([3]; AUC0–24 ≥400 mg·h/L, 30/77, all three groups): 39.0% | incidence of new-onset AKI ([3]; AUC0–24 ≥ 600 mg·h/L, 17/35): 48.6% | number needed to harm (new-onset AKI) ([3]; AUC0–24 ≥400 versus < 400 mg·h/L): 4.1 | percentage of patients with new-onset AKI ([3]; CD group, fixed first dose 1000 mg, 10/35 patients): 28.6% | percentage of patients with new-onset AKI ([3]; LD group, 25 mg/kg loading dose, 17/45 patients): 37.8% | median AUC0–24 ([4]; CD group, fixed first dose 1000 mg (N = 39 courses)): 401 µg·h/mL | percentage of courses achieving AUC0–24 ≥400 mg·h/L ([4]; CD group, fixed first dose 1000 mg (N = 39 courses), assuming MIC = 1 mg/L): 53.8% | median AUC0–24 ([4]; LD group, 25 mg/kg loading dose (N = 50 courses)): 602 µg·h/mL | Cumulative AUC ([4]; all episodes included for model building (N = 104)): 1937 ± 1448 µg·h/mL | percentage of courses with AUC0–24 > 600 mg·h/L ([4]; courses with a loading dose, 26/50): 52% | Cumulative AUC ([4]; episodes with 25 mg/kg loading dose, LD group (N = 50)): 2027 ± 1543 µg·h/mL | Cumulative AUC ([4]; episodes without loading dose, CD group, first dose 1000 mg (N = 39)): 1849 ± 1359 µg·h/mL
